According to patent US11058660B2, “External wound-healing agent, and external wound-healing material” (Mitsui Chemicals, Inc., priority 2014, dated 2021):

Assays:
[1] = system: burn injury sites on the backs of rats; assay: Rat burn injury healing test with films; type: in vivo; settings: film test
Description: The skin conditions of the rats were evaluated according to the following scores (visual inspection).
0: asymptomatic, 1: slight, 2: mild, 3: moderate, 4: crusting, 5: necrosed
The test results were expressed as average values±standard errors and analyzed using EXSUS (Version 8.0, CAC EXICARE Corporation) and SAS (Version 9.3, SAS Institute Japan Ltd). For the scores of the skin conditions, the Wilcoxon test was conducted at a 2-sided significance level of 5%.
In this animal testing, the films 1 to 3 were applied to burn injury sites on the backs of rats, and the healing effects by the application of the films 1 to 3 were evaluated. For comparison, a burn injury site was left untreated, and the development of the untreated site was observed. The details of the experiment will be described below.
The back of a rat was depilated. In the depilated portion, hot water at 80° C. was brought into contact for 5 seconds to form two burn injury sites. […] On days 3, 6, and 9 after the application of the films 1 and 2, the films were removed, and the healing effect was evaluated.
Furthermore, two burn injury sites were formed on the back of another rat in the same manner as described above. […] On days 3, 6, and 9 after the application of the film 3, the film was removed, and the healing effect was evaluated. […]

[2] = system: burn injury site on the back of a rat; assay: Rat burn injury healing test with nonwoven fabrics; type: in vivo; settings: nonwoven fabric test
Description: In this animal testing, the nonwoven fabric A or the nonwoven fabric B was applied to a burn injury site on the back of a rat, and the healing effects by the application of the nonwoven fabric A and B were evaluated. The details of the experiment will be described below.
The back of a rat was depilated. In the depilated portion, hot water at 80° C. was brought into contact for 5 seconds to form two burn injury sites. To the burn injury sites, the nonwoven fabric A (about 2 cm×2 cm) and the nonwoven fabric B (about 2 cm×2 cm) were applied, and occlusive patching was performed using non-permeable surgical tape (Blenderm, 3M) and adhesive flexible bandage (Silkytex 3, ALCARE Co., Ltd). On days 3, 6, and 9 after the application of the nonwoven fabrics A and B, the nonwoven fabrics were removed, and the healing effect was evaluated. […]
Two burn injury sites were each formed on 15 rats, and then the nonwoven fabric A and the nonwoven fabric B were applied to each two burn injury sites. […] On day 3, the nonwoven fabrics A and B on the rats of test group A were removed, and the skin conditions were assessed. On day 6, the nonwoven fabrics A and B on the rats of test group B were removed, and the skin conditions were assessed, and on day 9, the nonwoven fabrics A and B on the rats of test group C were removed, and the skin conditions were assessed. […]

SMILES: CCCCCCCCCCCCCCCCCC(=O)OCC(O)CO (centres unmarked) [glycerol alkyl ester, glycerol stearate]
- healing effect on skin having a burn injury (conclusion) [1]: has an external wound-healing effect
- healing effect on skin having a burn injury (conclusion) [2]: has an external wound-healing effect
